# Results from US20180228811A1, “GDNF INDUCTION FOR THE TREATMENT OF RETINAL DISORDERS” (THE SCHEPENS EYE RESEARCH INSTITUTE, INC., priority 2014, published 2018).
# “And” between values parts separate entries of the source, which are not always exact repeats. Equal entries are not always repeated.
# Key:
# GDNF [1] = assay: GDNF induction by Compound I aqueous solution in rhodopsin knockout mice; type: in vivo, mouse; details: 3 hours; for GDNF protein upregulation: vehicle 1.2 fold
# Procedure: All animal procedures were performed under general (intraperitoneal ketamine/xylazine) and topical (proparacaine drops) anesthesia. Tropicamide was applied for pupil dilation. After injection, the eye was treated with antibiotic ointment (Bacitracin-Neomycin-Polymyxin). The same procedures were applied to control eyes.
# To study GDNF induction by Compound I aqueous solution, 1 ul of 10 uM (n=5) or 100 uM (n=5) water-based Compound I or 1 ul of Vehicle (n=5) was administered intravitreally using beveled glass needle, connected to a Hamilton syringe through polyethylene tubing. During the injection, corneal paracenthesis was performed to reduce intraocular pressure. Compound I was injected into 4-week old wildtype (C57/Bl6, Jackson labs) and rhodopsin knockout (Humphries et al., Nat. Genet. 15, 216-219 (1997)).
# Three hours after the injection animals were euthanized using CO2, then the death was confirmed by cervical dislocation. The treated and untreated eyes were enucleated and placed in 250 ul of chilled RNAlater buffer (Qiagen) and stored at 4° C. Later, eyes were excised and total neural retina with retinal pigment epithelium were collected into 400 ul of Lysis buffer (Qiagen RNeasy kit) with 5 mM beta-mercaptoethanol. Total RNA was isolated using RNeasy kit (Qiagen) and eluted with 100 ul of Ultrapure water (Life technologies). All flow through from RNA isolation (˜2.4 ml) was collected and mixed with 10 ml of ice-cold (−20° C.) acetone for protein precipitation. The protein was precipitated at −20° C. for 30 minutes, then pelleted at 3500 rpm for 20 min. Pellets were washed once with 100% ethanol, then reconstituted with 300 ul of RIPA buffer with 0.2 mM 4-benzenesulfonyl fluoride hydrochloride (Tocris). mRNA and protein expression were assessed by qPCR and Western Blot and normalized to GAPDH and βActin. The statistical analysis was performed using a T-test (p<0.05) with Bonferroni post-hoc test.
# [2] = Pharmacokinetic studies of Compound I sustained release formulation (suspension) in wild-type mice; type: in vivo, mouse; details: for Compound I content in the collected vitreoretinal samples / Compound I concentration in the vitreoretinal sample: 2 ul of 60 mg/ml suspension intravitreally; for total Compound I content per eye: suspension intravitreally
# Procedure: To profile pharmacokinetics of Compound I after single intravitreal injection, 2 ul of Compound I suspension (60 mg/ml) were administered intravitreally to 3 week old wild-type (C57/Bl6) mice in the same way as described above for the solution. A beveled glass needle connected to a Hamilton syringe through polyethylene tubing was used. During the injection, corneal paracenthesis was performed to reduce intraocular pressure.
# For enucleation animals were euthanized at several timepoints after injection: 1 hour (n=5), 1 day (n=3), 2 days (n=3), 7 days (n=3) and 14 days (n=3). The eyes were enucleated and placed in chilled phosphate-buffered saline and kept on ice. The eyes were dissected within 30 minutes post-enucleation: total retina and vitreous were collected into pre-weighed tubes, weighted and snap frozen. For Compound I content in the eye analysis retina and vitreous humor samples were diluted in 0.1% formic acid in 90:10 (v:v) acetonitrile:water before being analyzed for Compound I using an analytical method based on protein precipitation, followed by HPLC/MS/MS analysis. Using a 25 μL aliquot of sample, the lower limit of quantification (LLQ) for Compound I was 1.00 ng/mL. The computer systems that were used on this study to acquire and quantify data included Analyst Version 1.6.1 and SMS2000 version 2.3. The results were analyzed by ANOVA (p<0.05).
# GDNF [3] = assay: GDNF induction in human retinal progenitor cells (hRPC) (ELISA); type: cell-based
# Procedure: GDNF induction […] was assessed using three retinal-specific cell systems: ARPE19, as a model for human retinal pigment epithelium; human retinal progenitor cells (hRPC), as a substitute for human retinal neurons/glia; and mouse eyecups, differentiated from induced pluripotent stem cells. ARPE19 cells are described in Dunn et al., Exp. Eye Res. 62: 155-169, 1996. To study GDNF induction in a human retinal pigment epithelium cell line, ARPE19, thawed ARPE19 cells (passage 33, ATCC) were plated on fibronectin (Akron)-coated plates (Nunc) in stimulation medium at a density of 10 k cells/sq.cm. The flasks were incubated at standard conditions: 37° C., 5% CO2, 100% humidity. Cells were plated 24 hours prior to Compound I treatment and were grown in Ultraculture medium (Lonza), supplemented with 1×MEM NEAA (Gibco), 1× L-glutamine (Gibco), 1× Antibiotic/antimycotic (Gibco), 2 ng/ml bFGF (Peprotech), 1 ng/ml EGF (Peprotech). For qPCR analysis, the experiments were performed in 35 mm Petri dishes in 2 ml of medium with Compound I concentration of 100 nM (DMSO-based solution). Total mRNA was isolated at 0, 15, 30, 60, 120, 240 minutes post stimulation. For protein expression determination by ELISA, the experiments were performed in 96 well plates in 100 ul of medium with each condition (concentrations ranging from 0 to 10 uM) reproduced in 3 wells. For ELISA analysis, plates were removed from out of incubator 24 hours post stimulation and freeze-thawed followed by CHAPS lysis buffer treatment for total […] extraction. The ELISA analysis for GDNF was performed using GDNF DuoSet kit (R&D systems) using manufacturer's instructions.
# Experiments with human retinal progenitor cell line (hRPC) were performed in a similar manner (Baranov et al., Tissue Eng Part A 20, 140124133442001-1475 (2014)): hRPC were thawed and plated (passage 15) in 96 well plates using the same conditions and density as described above for ARPE19. The cell treatment, sample collection and readout were performed using the same protocol. […]
# GDNF [4] = assay: GDNF induction in mouse eyecups differentiated from induced pluripotent stem cells (ELISA); type: cell-based
# Procedure: GDNF induction […] was assessed using three retinal-specific cell systems: ARPE19, as a model for human retinal pigment epithelium; human retinal progenitor cells (hRPC), as a substitute for human retinal neurons/glia; and mouse eyecups, differentiated from induced pluripotent stem cells. ARPE19 cells are described in Dunn et al., Exp. Eye Res. 62: 155-169, 1996. To study GDNF induction in a human retinal pigment epithelium cell line, ARPE19, thawed ARPE19 cells (passage 33, ATCC) were plated on fibronectin (Akron)-coated plates (Nunc) in stimulation medium at a density of 10 k cells/sq.cm. The flasks were incubated at standard conditions: 37° C., 5% CO2, 100% humidity. Cells were plated 24 hours prior to Compound I treatment and were grown in Ultraculture medium (Lonza), supplemented with 1×MEM NEAA (Gibco), 1× L-glutamine (Gibco), 1× Antibiotic/antimycotic (Gibco), 2 ng/ml bFGF (Peprotech), 1 ng/ml EGF (Peprotech). […]
# To study GDNF induction in retina-like tissue structures, mouse eyecups were differentiated from wild-type mouse induced pluripotent stem cells according to the protocol described previously (Eiraku, M. & Sasai, Y., Nat Protoc 7, 69-79 (2012)). […] The results of dose-dependent GDNF induction were analyzed by ANOVA (p<0.05).
# [5] = wt mice, 14 days post injection
smiles,measurement,setting,value
"COc1cc2c(cc1S(=O)(=O)c1ccc(OCc3ccc(Cl)cc3)cc1)CCN(C)CC2 [Compound I, 7-[4-(4-chloro-benzyloxy)-benzenesulfonyl]-8-methoxy-3-methyl-2,3,4,5-tetrahydro-1H-3-benzazepine]",GDNF mRNA induction compared to vehicle-treated control,GDNF [1]; 10 uM solution intravitreally,1.8 fold
same,GDNF protein upregulation,GDNF [1]; 10 uM solution intravitreally,> 2 fold and 2.8 fold
same,GDNF mRNA induction compared to vehicle-treated control,GDNF [1]; 100 uM solution intravitreally,1.7 fold
same,GDNF protein upregulation,GDNF [1]; 100 uM solution intravitreally,> 2 fold and 2.6 fold
same,time drug may be present according to modeling,"[2]; single 2 ul intravitreal injection of suspension, modeling",up to 4 weeks
same,Compound I content in the collected vitreoretinal samples,"[2]; wt mice, 1 hour post-injection",21 ug per milligram of tissue
same,Compound I concentration in the vitreoretinal sample,"[2]; wt mice, 14 days",5 mg/g tissue
same,Compound I content in the collected vitreoretinal samples,[2]; [5],5 ug per milligram of tissue
same,Compound I concentration in the vitreoretinal sample,"[2]; wt mice, start of time course (1 hour)",20 mg/g tissue
same,time the compound remained in the eye after single intravitreal injection,"[2]; wt mice, single 2 ul injection of suspension",at least 2 weeks
same,total Compound I content per eye,"[2]; wt mice, 1 hour post-injection",80 µg
same,total Compound I content per eye,[2]; [5],28 µg
same,GDNF induction,GDNF [3],More than 2 fold
same,"GDNF induction, result in words",GDNF [3]; 0 to 10 uM,Significant dose-dependent GDNF induction
same,concentration of Compound I at which GDNF was upregulated,"GDNF [3]; ELISA, FIG. 1B",1 µM
same,GDNF induction,GDNF [4],More than 2 fold
same,"GDNF induction, result in words",GDNF [4]; 0 to 10 uM,Significant dose-dependent GDNF induction
